Where two headings read alike, the source gives them in different places.
Test system: garden ants (Lasius niger)
Assay: Repellent effect of active compounds on treated surfaces against ants
Format: in vivo
Set-up: pest or weed control: dose or concentration left out as unconfirmed
Description: Determination of a Repellent Effect of Active Compounds on Treated Surfaces against Ants
The tests are carried out in crystallizing dishes (Ø 30 cm, height 10 cm) using garden ants (Lasius niger). The walls of the dishes are treated with talc to prevent the test animals from escaping. The bottom of the dish is filled with a well-moistened layer of peat of a height of about 3-4 cm. At least 5 days before the beginning of the test, the dishes are populated with 300 ants which by the time the test starts will have built passages and hiding places. The dishes prepared in this manner can be used for several weeks as long as the substances examined are insecticide-free. The ants are fed with forest honey and crystalline sugar, and the feed is removed from the dishes during the tests.
Immediately before the start of the test, 2 glass plates (5×10 cm) are placed into the dish. One plate had been treated with active compound, the other remains untreated.
The activity of the ants can be monitored, for example, visually.
What is determined is the number of ants which, within a period of 15 minutes, cross the surface to be evaluated. The activity has to be so high that at least 100 contacts are achieved. If the activity is not high enough, the time for the test has to be extended accordingly. By evaluating the number of contacts on the treated and the untreated tile, a possible repellent action can be determined.
The results of the experiments with different compositions of repellent and additive are shown below. In the compositions, repellent and additive were mixed in a ratio of 100:100% by weight.

[1] = Lasius niger, 24 h, additive alone, after 1 day, read-out: % reduction of contacts after days
[2] = Lasius niger, 24 h, IR 3535/DEET table, after 1 day, read-out: % reduction of contacts after days
[3] = Lasius niger, 48 h, IR 3535/DEET table, after 2 days, read-out: % reduction of contacts after days
[4] = Lasius niger, 72 h, IR 3535/DEET table, after 3 days, read-out: % reduction of contacts after days
[5] = Lasius niger, 96 h, IR 3535/DEET table, after 4 days, read-out: % reduction of contacts after days
[6] = Lasius niger, 168 h, IR 3535/DEET table, after 7 days, read-out: % reduction of contacts after days
[7] = Lasius niger, 192 h, IR 3535/DEET table, after 8 days, read-out: % reduction of contacts after days
[8] = Lasius niger, 240 h, IR 3535/DEET table, after 10 days, read-out: % reduction of contacts after days

Structure (SMILES): OCC(O)CO [Glycerol]
- pest or weed control [1]: 0%

Structure (SMILES): COc1cc(C=O)ccc1O [Vanillin]
- pest or weed control [1]: 63%
- pest or weed control (Lasius niger, 48 h, additive alone, after 2 days, read-out: % reduction of contacts after days): 46%
- pest or weed control (Lasius niger, 72 h, additive alone, after 3 days, read-out: % reduction of contacts after days): 65%
- pest or weed control (Lasius niger, 96 h, additive alone, after 4 days, read-out: % reduction of contacts after days): 83%
- pest or weed control (Lasius niger, 168 h, additive alone, after 7 days, read-out: % reduction of contacts after days): 51%
- pest or weed control (Lasius niger, 192 h, additive alone, after 8 days, read-out: % reduction of contacts after days): 35%
- pest or weed control (Lasius niger, 216 h, additive alone, after 9 days, read-out: % reduction of contacts after days): 0%
- pest or weed control (Lasius niger, 240 h, additive alone, after 10 days, read-out: % reduction of contacts after days): 0%
- repellent effect of the additive on the ants (additive alone): slightly repellent effect

Structure (SMILES): CCCCN(CCC(=O)OCC)C(C)=O [Ex. 1]
- pest or weed control [2]: 98%
- pest or weed control [3]: 91%
- pest or weed control [4]: 29%
- pest or weed control [5]: 0%
- pest or weed control [6]: 0%
- pest or weed control [7]: 0%
- pest or weed control [8]: 0%

Structure (SMILES): O=C/C=C/c1ccccc1 [trans-Cinnamaldehyde]
- pest or weed control [1]: 0%

Structure (SMILES): O=C(O)c1ccccc1O [Salicylic acid]
- pest or weed control at 500 mg/m2 (Lasius niger, 24 h, read-out: % reduction of contacts after days): 3%

Structure (SMILES): O=Cc1ccc(O)cc1 [p-Hydroxybenzaldehyde]
- pest or weed control [1]: 23%

Structure (SMILES): COc1ccc(C=O)c(OC)c1 [2,4-Dimethoxybenzaldehyde]
- pest or weed control [1]: 0%

Structure (SMILES): CCN(CC)C(=O)c1cccc(C)c1 [compound 5, N,N-diethyl-m-toluamide]
- pest or weed control [2]: 100%
- pest or weed control [3]: 76%
- pest or weed control [4]: 0%
- pest or weed control [5]: 0%
- pest or weed control [6]: 27%
- pest or weed control [7]: 14%
- pest or weed control [8]: 0%
